Laboratory results reported in ChEMBL document CHEMBL4680139, “Antiproliferative activity of diarylnaphthylpyrrolidine derivative via dual target inhibition” (Eur J Med Chem, 2020).
pIC50: −log10 of the molar value.

What was measured:
[1] = test system: MCF7; experiment: Induction of apoptosis in human MCF-7 cells assessed as proportion of late apoptotic cells at 2.17 uM measured after 24 hrs by Annexin V- FITC/propidium iodide staining based flow cytometry (reference value: 0.1%); type: functional
[2] = test system: MDA-MB-231; experiment: Induction of cell cycle arrest in human MDA-MB-231 cells assessed as accumulation at G0/G1 phase at 2.6 uM by propidium iodide staining based flow cytometry (reference value: 77.7 +/- 0.28%); type: functional
[3] = test system: MCF7; experiment: Induction of apoptosis in human MCF-7 cells assessed as proportion of early apoptotic cells at 4.33 uM measured after 24 hrs by Annexin V- FITC/propidium iodide staining based flow cytometry (reference value: 0%); type: functional
[4] = Toxicity in Swiss albino mouse assessed as body weight at 50 mg/kg, po administered as single dose (reference value: 31.62 +/- 1.64 gms); type: organism-based; conditions: in vivo
[5] = test system: MCF7; experiment: Antiproliferative activity against human MCF-7 cells assessed as proportion of live cells at 12.5 ug/ml measured after 3 weeks by crystal violet staining based soft agar colony formation assay (reference value: 100%); type: functional; conditions: dose 12.5 µg/ml
[6] = Toxicity in Swiss albino mouse assessed as WBC level in blood at 5 mg/kg, po administered as single dose (reference value: 17.06 +/- 1.33x10^3/mm3); type: organism-based; conditions: in vivo
[7] = Toxicity in Swiss albino mouse assessed as creatinine level in serum at 300 mg/kg, po administered as single dose (reference value: 0.27+/-0.02 mg/dl); type: organism-based; conditions: in vivo
[8] = Toxicity in Swiss albino mouse assessed as ALP level in serum at 50 mg/kg, po administered as single dose (reference value: 195.8 +/-12.06 U/L); type: organism-based; conditions: in vivo
[9] = Toxicity in Swiss albino mouse assessed as haemoglobin level in blood at 300 mg/kg, po administered as single dose (reference value: 12.05 +/-0.88 gm/dl); type: organism-based; conditions: in vivo
[10] = test system: MDA-MB-231; experiment: Induction of cell cycle arrest in human MDA-MB-231 cells assessed as accumulation at G2/M phase at 2.6 uM by propidium iodide staining based flow cytometry (reference value: 8.35 +/-0.07%); type: functional
[11] = test system: MDA-MB-231; experiment: Induction of apoptosis in human MDA-MB-231 cells assessed as proportion of viable cells at 2.6 uM measured after 24 hrs by Annexin V-FITC/propidium iodide staining based flow cytometry (reference value: 99%); type: functional
[12] = Toxicity in Swiss albino mouse assessed as ALP level in serum at 300 mg/kg, po administered as single dose (reference value: 195.8 +/-12.06 U/L); type: organism-based; conditions: in vivo
[13] = Toxicity in Swiss albino mouse assessed as SGPT level in serum at 300 mg/kg, po administered as single dose (reference value: 21.81 +/-2.1 U/L); type: organism-based; conditions: in vivo
[14] = test system: MDA-MB-231; experiment: Induction of apoptosis in human MDA-MB-231 cells at 5.21 uM by propidium iodide staining based flow cytometry (reference value: 2.6 +/- 0.28%); type: functional
[15] = test system: A549; experiment: Antiproliferative activity against human A549 cells assessed as inhibition of cell growth measured after 48 hrs by SRB assay; type: functional, cell-based; conditions: A549, 48 h
[16] = test system: HCT-116; experiment: Antiproliferative activity against human HCT-116 cells assessed as inhibition of cell growth measured after 48 hrs by SRB assay; type: functional, cell-based; conditions: HCT-116, 48 h
[17] = Toxicity in Swiss albino mouse assessed as RBC level in blood at 50 mg/kg, po administered as single dose (reference value: 10.56 +/- 1.22x10^6/mm3); type: organism-based; conditions: in vivo
[18] = test system: MCF7; experiment: Induction of cell cycle arrest in human MCF-7 cells assessed as accumulation at G0/G1 phase at 4.33 uM by propidium iodide staining based flow cytometry (reference value: 74.5%); type: functional
[19] = test system: MCF7; experiment: Induction of cell cycle arrest in human MCF-7 cells assessed as accumulation at S phase at 8.66 uM by propidium iodide staining based flow cytometry (reference value: 6.9%); type: functional
[20] = test system: MDA-MB-231; experiment: Induction of apoptosis in human MDA-MB-231 cells assessed as proportion of late apoptotic cells at 5.21 uM measured after 24 hrs by Annexin V-FITC/propidium iodide staining based flow cytometry (reference value: 0.5%); type: functional
[21] = test system: MDA-MB-231; experiment: Induction of apoptosis in human MDA-MB-231 cells assessed as proportion of necrotic cells at 2.6 uM measured after 24 hrs by Annexin V-FITC/propidium iodide staining based flow cytometry (reference value: 0.2%); type: functional
[22] = Toxicity in Swiss albino mouse assessed as cholesterol level in serum at 5 mg/kg, po administered as single dose (reference value: 103.62 +/-7.45 mg/dl); type: organism-based; conditions: in vivo
[23] = test system: MCF7; experiment: Induction of apoptosis in human MCF-7 cells assessed as proportion of late apoptotic cells at 4.33 uM measured after 24 hrs by Annexin V- FITC/propidium iodide staining based flow cytometry (reference value: 0.1%); type: functional
[24] = test system: MDA-MB-231; experiment: Antiproliferative activity against human MDA-MB-231 cells assessed as inhibition of cell growth measured after 48 hrs by SRB assay; type: functional, cell-based; conditions: MDA-MB-231, 48 h, read-out: IC50
[25] = target: DNA topoisomerase 2-alpha (Homo sapiens) (UniProt P11388); experiment: Inhibition of DNA-topoisomerase 2 in human MCF7 cells using kinetoplast DNA as substrate measured by ELISA; type: cell-based; conditions: dose 4.33-17.32 µM
Chain of DNA topoisomerase 2-alpha (Homo sapiens) (P11388 whole entry): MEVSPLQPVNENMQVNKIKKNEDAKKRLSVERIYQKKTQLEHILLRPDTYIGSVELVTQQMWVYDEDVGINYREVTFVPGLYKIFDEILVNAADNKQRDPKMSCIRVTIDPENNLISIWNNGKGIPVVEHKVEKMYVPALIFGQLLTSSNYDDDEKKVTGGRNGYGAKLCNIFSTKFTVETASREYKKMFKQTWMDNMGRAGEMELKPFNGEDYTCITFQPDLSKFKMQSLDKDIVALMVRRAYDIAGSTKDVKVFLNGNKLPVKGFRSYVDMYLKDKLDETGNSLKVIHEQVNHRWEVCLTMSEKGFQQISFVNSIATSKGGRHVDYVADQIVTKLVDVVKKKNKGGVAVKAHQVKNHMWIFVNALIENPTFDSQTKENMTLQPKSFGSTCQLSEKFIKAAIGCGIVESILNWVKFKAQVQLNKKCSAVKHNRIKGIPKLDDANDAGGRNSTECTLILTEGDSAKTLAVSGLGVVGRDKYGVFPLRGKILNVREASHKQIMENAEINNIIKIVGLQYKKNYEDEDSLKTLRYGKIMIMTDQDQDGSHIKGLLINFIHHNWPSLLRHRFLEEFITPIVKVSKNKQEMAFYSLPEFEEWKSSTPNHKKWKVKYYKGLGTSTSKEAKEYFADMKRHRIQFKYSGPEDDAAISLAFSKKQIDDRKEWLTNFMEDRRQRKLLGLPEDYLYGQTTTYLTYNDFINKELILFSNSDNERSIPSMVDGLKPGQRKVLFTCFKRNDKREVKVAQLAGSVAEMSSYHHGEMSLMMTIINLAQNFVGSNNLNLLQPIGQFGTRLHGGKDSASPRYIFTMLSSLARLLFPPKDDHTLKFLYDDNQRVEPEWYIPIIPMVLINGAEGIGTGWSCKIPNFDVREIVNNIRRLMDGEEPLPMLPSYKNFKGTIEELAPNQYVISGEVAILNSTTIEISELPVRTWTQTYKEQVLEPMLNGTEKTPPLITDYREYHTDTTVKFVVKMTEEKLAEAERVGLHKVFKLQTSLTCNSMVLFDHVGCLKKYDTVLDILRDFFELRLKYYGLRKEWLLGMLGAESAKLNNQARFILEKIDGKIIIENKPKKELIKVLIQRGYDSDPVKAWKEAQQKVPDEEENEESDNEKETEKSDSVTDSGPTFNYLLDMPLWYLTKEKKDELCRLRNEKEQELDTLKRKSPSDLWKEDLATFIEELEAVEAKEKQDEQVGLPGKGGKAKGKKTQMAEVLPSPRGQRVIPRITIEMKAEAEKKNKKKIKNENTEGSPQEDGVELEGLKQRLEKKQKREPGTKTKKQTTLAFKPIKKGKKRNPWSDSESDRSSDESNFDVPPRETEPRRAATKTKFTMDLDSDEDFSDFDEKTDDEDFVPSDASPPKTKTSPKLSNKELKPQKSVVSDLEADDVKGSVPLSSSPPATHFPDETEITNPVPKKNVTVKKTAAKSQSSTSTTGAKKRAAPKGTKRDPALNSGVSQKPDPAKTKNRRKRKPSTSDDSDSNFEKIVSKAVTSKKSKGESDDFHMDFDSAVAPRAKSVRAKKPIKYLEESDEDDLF

[26] = target: DNA topoisomerase 2-alpha (Homo sapiens) (UniProt P11388); experiment: Inhibition of DNA-topoisomerase 2 in human MCF7 cells using kinetoplast DNA as substrate at 17.32 uM measured by ELISA; type: cell-based
[27] = test system: MCF7; experiment: Induction of cell cycle arrest in human MCF-7 cells assessed as accumulation at G2/M phase at 8.66 uM by propidium iodide staining based flow cytometry (reference value: 15.2%); type: functional
[28] = test system: MCF7; experiment: Antiproliferative activity against human MCF-7 cells assessed as proportion of live cells at 6.25 ug/ml measured after 3 weeks by crystal violet staining based soft agar colony formation assay (reference value: 100%); type: functional; conditions: dose 6.25 µg/ml
[29] = test system: MDA-MB-231; experiment: Induction of apoptosis in human MDA-MB-231 cells assessed as proportion of necrotic cells at 10.42 uM measured after 24 hrs by Annexin V-FITC/propidium iodide staining based flow cytometry (reference value: 0.2%); type: functional
[30] = Toxicity in Swiss albino mouse assessed as SGOT level in serum at 300 mg/kg, po administered as single dose (reference value: 22.12 +/-1.91 U/L); type: organism-based; conditions: in vivo
[31] = test system: MDA-MB-231; experiment: Induction of apoptosis in human MDA-MB-231 cells assessed as proportion of early apoptotic cells at 10.42 uM measured after 24 hrs by Annexin V-FITC/propidium iodide staining based flow cytometry (reference value: 0.2%); type: functional
[32] = test system: MCF7; experiment: Induction of apoptosis in human MCF-7 cells at 4.33 uM by propidium iodide staining based flow cytometry (reference value: 2.1%); type: functional
[33] = test system: MDA-MB-231; experiment: Induction of apoptosis in human MDA-MB-231 cells assessed as proportion of late apoptotic cells at 10.42 uM measured after 24 hrs by Annexin V-FITC/propidium iodide staining based flow cytometry (reference value: 0.5%); type: functional

In the case of `COc1ccc(C(c2ccccc2OCCN2CCCC2)c2cccc3ccccc23)c(OC)c1OC` (stereo not drawn), the Activity [1] was 16.5%, the Activity [2] was 80.2% and the Activity [3] was 0%. The Activity [4] was 30.44 g, the Activity [5] was 47.2% and the Activity [6] was 11.11 10^3/mm3. For the same compound, the Activity [7] was 0.2 mg/dL, the Activity [8] was 182.4 U/L and the Activity [9] was 10.13 g/dL. It also gave an Activity [10] of 10.35%, an Activity [11] of 95.1% and an Activity [12] of 137.7 U/L. The Activity [13] was 22.34 U/L, the Activity [14] was 2.8% and the pIC50 [15] was 5.23. It also gave a pIC50 [16] of 5.69, an Activity [17] of 9.84 million/mm3 and an Activity [18] of 67.4%. It also gave an Activity [19] of 9.2%, an Activity [20] of 3.5% and an Activity [21] of 2.1%. It also gave an Activity [22] of 111.17 mg/dL, an Activity [23] of 25.8% and a pIC50 [24] of 5.28. For the same compound, the inhibition [25] was “Dose-dependent effect”, the inhibition [26] was 25.9% and the Activity [27] was 12.8%. The Activity [28] was 70.77%, the Activity [29] was 14.7% and the Activity [30] was 25.61 U/L. For the same compound, the Activity [31] was 1.7%, the Activity [32] was 4.7% and the Activity [33] was 34.2%.
